Results published in patent US20230146455A1, “TREATMENT OF INFLAMMATORY DISEASES WITH PEPTIDES AND PHARMACEUTICAL COMPOSITIONS” (Yuyu Pharma, Inc., priority 2020, published 2023).
Where “and” joins values, the source holds several entries; their conditions need not be identical. Identical values can stand only once. Where a SMILES comes first, the peptide text is derived from it. [ ]: non-standard residue; d: D form. Hyp = O=C(O)[C@@H]1C[C@@H](O)CN1

Key:
CCL4/MIP-1 beta = assay: Example 9 Luminex, LPS hPBMCs: CCL4/MIP-1 beta; type: cell-based, human; conditions: PBMC + LPS(5 ug/ml); for MFI (Bead name: CCL4/MIP-1 beta): dilution 10
Method: (§1) Treatment Human PBMCs were pretreated with YY-101, YDE-011 and YDE-043 or reference compound; Xiidra® at various concentration (ranging from 1 nM to 100 uM) for 2 h before stimulation. An equal volume of 0.5% DMSO was used as a vehicle control. Then, the cells were treated with LPS at 5 ug/ml. The supernatants from treated cells were harvested at 24 h and placed in a 96 well for Luminex cytokine & chemokine profiling using a Luminex 200 multiplex assay (Luminex; R&D system, USA).
(§2) The main study arm with triplicate wells per group in a 24-well plate: • 1. Blank • 2. PBMC: 0.5% DMSO • 3. PBMC+LPS (5 ug/ml) • 4. PBMC+YY-101 100 uM • 5. PBMC+YY-101 10 uM • 6. PBMC+YY-101 1 uM • 7. PBMC+YY-101 0.1 uM • 8. PBMC+YY-101 0.01 uM • 9. PBMC+LPS (5 ug/ml)+Xiidra®100 uM • 10. PBMC+LPS (5 ug/ml)+Xiidra® 10 uM • 11. PBMC+LPS (5 ug/ml)+Xiidra® 1 uM • 12. PBMC+LPS (5 ug/ml)+Xiidra®0.1 uM • 13. PBMC+LPS (5 ug/ml)+Xiidra®0.01 uM • 14. PBMC+LPS (5 ug/ml)+Xiidra®0.001 uM • 15. PBMC+LPS (5 ug/ml)+YY-101 100 uM • 16. PBMC+LPS (5 ug/ml)+YY-101 10 uM • 17. PBMC+LPS (5 ug/ml)+YY-101 1 uM • 18. PBMC+LPS (5 ug/ml)+YY-101 0.1 uM • 19. PBMC+LPS (5 ug/ml)+YY-101 0.01 uM • 20. PBMC+LPS (5 ug/ml)+YY-101 0.001 uM • 21. PBMC+LPS (5 ug/ml)+YDE-011 100 uM • 22. PBMC+LPS (5 ug/ml)+YDE-011 10 uM • 23. PBMC+LPS (5 ug/ml)+YDE-011 1 uM • 24. PBMC+LPS (5 ug/ml)+YDE-011 0.1 uM • 25. PBMC+LPS (5 ug/ml)+YDE-011 0.01 uM • 26. PBMC+LPS (5 ug/ml)+YDE-011 0.001 uM • 27. PBMC+LPS (5 ug/ml)+YDE-043 100 uM • 28. PBMC+LPS (5 ug/ml)+YDE-043 10 uM • 29. PBMC+LPS (5 ug/ml)+YDE-043 1 uM • 30. PBMC+LPS (5 ug/ml)+YDE-043 0.1 uM • 31. PBMC+LPS (5 ug/ml)+YDE-043 0.01 uM • 32. PBMC+LPS (5 ug/ml)+YDE-043 0.001 uM
(§3) Multiplex assay was used to measure 30 cytokines and chemokines. The 1:2, 1:10 and 1:200 diluted cell supernatant and serial dilution of the standard were dispensed into a 96 well plate at 50 ul/well. Then, the pre-mixed cocktail of antibody-coated magnetic beads was dispensed at 50 ul/well and incubated at room temperature for 2 h in a horizontal orbital microplate shaker at 800±500 rpm. The beads were washed using a magnetic device to prevent loss. The biotin-antibody was dispensed in 50 ul of each well and incubated at room temperature for 1 h in a shaker at 800±500 rpm. After washing, streptavidin-PE was added at 50 ul/well and incubated at room temperature for 30 min in a shaker under the same conditions. Finally, after washing, wash buffer (100 ul/well) was added to the plate and incubated in a shaker for 2 min. The Luminex™ 200 setting were set according to the manufacturer's protocol. The data was calculated with a standard five-parameter logistic nonlinear regression analysis of the data (xPonent software 4.2, USA). The levels of cytokine/chemokine are normalized to the live cell counts (1×10^5 cells/mL) and presented as concentrations per mL (pg/mL or ng/mL).

CCL2/JE/MCP-1 = assay: Example 9 Luminex, LPS hPBMCs: CCL2/JE/MCP-1; type: cell-based, human
Method: as §1, §2, §3

[1] = test article 0.001 uM, single replicates
[2] = test article 0.01 uM, single replicates
[3] = test article 0.1 uM, single replicates
[4] = test article 1 uM, single replicates
[5] = test article 10 uM, single replicates
[6] = test article 100 uM, single replicates
[7] = PBMC + LPS(5 ug/ml) + test article 0.001 uM, Mean
[8] = PBMC + LPS(5 ug/ml) + test article 0.001 uM, individual replicates
[9] = PBMC + LPS(5 ug/ml) + test article 0.01 uM, Mean
[10] = PBMC + LPS(5 ug/ml) + test article 0.01 uM, individual replicates
[11] = PBMC + LPS(5 ug/ml) + test article 0.1 uM, Mean
[12] = PBMC + LPS(5 ug/ml) + test article 0.1 uM, individual replicates
[13] = PBMC + LPS(5 ug/ml) + test article 1 uM, Mean
[14] = PBMC + LPS(5 ug/ml) + test article 1 uM, individual replicates
[15] = PBMC + LPS(5 ug/ml) + test article 10 uM, Mean
[16] = PBMC + LPS(5 ug/ml) + test article 10 uM, individual replicates
[17] = PBMC + LPS(5 ug/ml) + test article 100 uM, Mean
[18] = PBMC + LPS(5 ug/ml) + test article 100 uM, individual replicates

CC(C)C[C@H](NC(=O)CNC(=O)[C@H](CC(C)C)NC(=O)[C@H](CCC(N)=O)NC(=O)CNC(=O)[C@@H]1C[C@@H](O)CN1)C(=O)N[C@@H](C)C(=O)NCC(=O)N1CCC[C@H]1C(=O)N[C@@H](CCCCN)C(=O)O [YDE-011] (H-[Hyp]GQLGLAGPK-OH)
Concentration (CCL4/MIP-1 beta) (CCL4/MIP-1 beta; test article 0.001 uM, Mean): 7251.7 pg/mL
conc/live cell (CCL4/MIP-1 beta) (CCL4/MIP-1 beta; test article 0.001 uM, Mean): 1370.9 pg/10^5
MFI (Bead name: CCL4/MIP-1 beta) (CCL4/MIP-1 beta; test article 0.001 uM, Mean): 157.3
MFI (Bead name: CCL4/MIP-1 beta) (CCL4/MIP-1 beta; [1]): 158.0 (2×) and 156.0
Concentration (CCL4/MIP-1 beta) (CCL4/MIP-1 beta; [1]): 7267.3 pg/ml (2×) and 7220.3 pg/ml
conc/live cell (CCL4/MIP-1 beta) (CCL4/MIP-1 beta; [1]): 1615.0 pg/10^5 and 1244.9 pg/10^5 and 1253.0 pg/10^5
Concentration (CCL4/MIP-1 beta) (CCL4/MIP-1 beta; test article 0.01 uM, Mean): 7395.1 pg/mL
conc/live cell (CCL4/MIP-1 beta) (CCL4/MIP-1 beta; test article 0.01 uM, Mean): 1270.9 pg/10^5
MFI (Bead name: CCL4/MIP-1 beta) (CCL4/MIP-1 beta; test article 0.01 uM, Mean): 163.5
MFI (Bead name: CCL4/MIP-1 beta) (CCL4/MIP-1 beta; [2]): 164.0 and 159.0 and 167.5
Concentration (CCL4/MIP-1 beta) (CCL4/MIP-1 beta; [2]): 7407.0 pg/mL and 7290.8 pg/mL and 7487.6 pg/mL
conc/live cell (CCL4/MIP-1 beta) (CCL4/MIP-1 beta; [2]): 1194.7 pg/10^5 and 1429.6 pg/10^5 and 1188.5 pg/10^5
Concentration (CCL4/MIP-1 beta) (CCL4/MIP-1 beta; test article 0.1 uM, Mean): 7029.3 pg/mL
conc/live cell (CCL4/MIP-1 beta) (CCL4/MIP-1 beta; test article 0.1 uM, Mean): 1234.5 pg/10^5
MFI (Bead name: CCL4/MIP-1 beta) (CCL4/MIP-1 beta; test article 0.1 uM, Mean): 148.0
MFI (Bead name: CCL4/MIP-1 beta) (CCL4/MIP-1 beta; [3]): 152.0 and 151.0 and 141.0
Concentration (CCL4/MIP-1 beta) (CCL4/MIP-1 beta; [3]): 7125.7 pg/mL and 7101.9 pg/mL and 6860.2 pg/mL
conc/live cell (CCL4/MIP-1 beta) (CCL4/MIP-1 beta; [3]): 1079.6 pg/10^5 and 1420.4 pg/10^5 and 1203.6 pg/10^5
Concentration (CCL4/MIP-1 beta) (CCL4/MIP-1 beta; test article 1 uM, Mean): 7165.0 pg/mL
conc/live cell (CCL4/MIP-1 beta) (CCL4/MIP-1 beta; test article 1 uM, Mean): 1429.9 pg/10^5
MFI (Bead name: CCL4/MIP-1 beta) (CCL4/MIP-1 beta; test article 1 uM, Mean): 153.7
MFI (Bead name: CCL4/MIP-1 beta) (CCL4/MIP-1 beta; [4]): 151.0 and 152.0 and 158.0
Concentration (CCL4/MIP-1 beta) (CCL4/MIP-1 beta; [4]): 7101.9 pg/mL and 7125.7 pg/mL and 7267.3 pg/mL
conc/live cell (CCL4/MIP-1 beta) (CCL4/MIP-1 beta; [4]): 1291.2 pg/10^5 and 1484.5 pg/10^5 and 1514.0 pg/10^5
Concentration (CCL4/MIP-1 beta) (CCL4/MIP-1 beta; test article 10 uM, Mean): 7321.1 pg/mL
conc/live cell (CCL4/MIP-1 beta) (CCL4/MIP-1 beta; test article 10 uM, Mean): 1392.8 pg/10^5
MFI (Bead name: CCL4/MIP-1 beta) (CCL4/MIP-1 beta; test article 10 uM, Mean): 160.3
MFI (Bead name: CCL4/MIP-1 beta) (CCL4/MIP-1 beta; [5]): 166.0 and 153.5 and 161.5
Concentration (CCL4/MIP-1 beta) (CCL4/MIP-1 beta; [5]): 7453.1 pg/mL and 7161.3 pg/mL and 7349.0 pg/mL
conc/live cell (CCL4/MIP-1 beta) (CCL4/MIP-1 beta; [5]): 1380.2 pg/10^5 and 1234.7 pg/10^5 and 1563.6 pg/10^5
Concentration (CCL4/MIP-1 beta) (CCL4/MIP-1 beta; test article 100 uM, Mean): 6290.1 pg/mL
conc/live cell (CCL4/MIP-1 beta) (CCL4/MIP-1 beta; test article 100 uM, Mean): 1036.8 pg/10^5
MFI (Bead name: CCL4/MIP-1 beta) (CCL4/MIP-1 beta; test article 100 uM, Mean): 118.5
MFI (Bead name: CCL4/MIP-1 beta) (CCL4/MIP-1 beta; [6]): 119.0 and 121.5 and 115.0
Concentration (CCL4/MIP-1 beta) (CCL4/MIP-1 beta; [6]): 6303.5 pg/mL and 6368.7 pg/mL and 6197.9 pg/mL
conc/live cell (CCL4/MIP-1 beta) (CCL4/MIP-1 beta; [6]): 1033.4 pg/10^5 and 1044.1 pg/10^5 and 1033.0 pg/10^5
Concentration (CCL2/JE/MCP-1; [7]): 1881.3 pg/mL
conc/live cell (CCL2/JE/MCP-1; [7]): 355.2 pg/10^5
Concentration (CCL2/JE/MCP-1; [8]): 1856.7 pg/mL and 1905.5 pg/mL and 1881.6 pg/mL
conc/live cell (CCL2/JE/MCP-1; [8]): 412.6 pg/10^5 and 328.5 pg/10^5 and 324.4 pg/10^5
Concentration (CCL2/JE/MCP-1; [9]): 1974.9 pg/mL
conc/live cell (CCL2/JE/MCP-1; [9]): 339.7 pg/10^5
Concentration (CCL2/JE/MCP-1; [10]): 1895.6 pg/mL and 2063.3 pg/mL and 1965.9 pg/mL
conc/live cell (CCL2/JE/MCP-1; [10]): 300.9 pg/10^5 and 332.8 pg/10^5 and 385.5 pg/10^5
Concentration (CCL2/JE/MCP-1; [11]): 1708.3 pg/mL
conc/live cell (CCL2/JE/MCP-1; [11]): 300.6 pg/10^5
Concentration (CCL2/JE/MCP-1; [12]): 1699.1 pg/mL and 1759.6 pg/mL and 1666.0 pg/mL
conc/live cell (CCL2/JE/MCP-1; [12]): 257.4 pg/10^5 and 351.9 pg/10^5 and 292.3 pg/10^5
Concentration (CCL2/JE/MCP-1; [13]): 1797.0 pg/mL
conc/live cell (CCL2/JE/MCP-1; [13]): 358.5 pg/10^5
Concentration (CCL2/JE/MCP-1; [14]): 1795.6 pg/mL and 1880.8 pg/mL and 1714.5 pg/mL
conc/live cell (CCL2/JE/MCP-1; [14]): 326.5 pg/10^5 and 391.8 pg/10^5 and 357.2 pg/10^5
Concentration (CCL2/JE/MCP-1; [15]): 1564.4 pg/mL
conc/live cell (CCL2/JE/MCP-1; [15]): 297.3 pg/10^5
Concentration (CCL2/JE/MCP-1; [16]): 1502.6 pg/mL and 1615.2 pg/mL and 1575.4 pg/mL
conc/live cell (CCL2/JE/MCP-1; [16]): 278.3 pg/10^5 and 278.5 pg/10^5 and 335.2 pg/10^5
Concentration (CCL2/JE/MCP-1; [17]): 281.9 pg/mL
conc/live cell (CCL2/JE/MCP-1; [17]): 46.5 pg/10^5
Concentration (CCL2/JE/MCP-1; [18]): 252.0 pg/mL and 301.1 pg/mL and 292.6 pg/mL
conc/live cell (CCL2/JE/MCP-1; [18]): 41.3 pg/10^5 and 49.4 pg/10^5 and 48.8 pg/10^5
